Like-named read-outs stand apart in the source and are kept apart here.
Test: Plasma pharmacokinetics of lorlatinib at steady state (LC-MS/MS, non-compartmental analysis)
Format: in vivo, human
Settings: for Lambda_z: in h-1 (unit assumed); for Tlag: unit assumed; for Cmax: read-out: Cmax; for AUC: read-out: AUC_TAU
Description: Lorlatinib was isolated from human plasma by a liquid-iquid extraction procedure. […] A linear-log trapezoidal method was used [NT] A best-fit method was used to estimate terminal elimination and to extrapolate any plasma concentration versus time profiles to compute [NT].

[1] = Cycle 1 Day 15, Cohort A1, 115 mg/m2 per dose, individual patients
[2] = Cycle 1 Day 15, Cohort A1, 115 mg/m2 per dose, individual patients, in h (unit assumed)
[3] = Cycle 1 Day 15, Cohort A1, 115 mg/m2 per dose, individual patients, in ng/mL
[4] = Cycle 1 Day 15, Cohort A2, 100 mg per dose, individual patients
[5] = Cycle 1 Day 15, Cohort A2, 150 mg per dose, individual patients
[6] = Cycle 1 Day 15, Cohort A2, 150 mg per dose, individual patients, in h (unit assumed)
[7] = Cycle 1 Day 15, patient N0773, Cohort B2, 115 mg/m2 per dose, Dose 75
[8] = Cycle 1 Day 15, patient N0773, Cohort B2, 115 mg/m2 per dose, Dose 75, in h (unit assumed)
[9] = human, in vivo, 115 mg/m2, Cohort A1, 115 mg/m2 per dose, C1D15, Geometric Mean, N 6
[10] = human, in vivo, 115 mg/m2, Cohort A1, 115 mg/m2 per dose, C1D15, Median, N 6
[11] = human, in vivo, 115 mg/m2, Cohort B2, 115 mg/m2 per dose, C1D15, Geometric Mean, N 6
[12] = human, in vivo, 115 mg/m2, Cohort B2, 115 mg/m2 per dose, C1D15, Median, N 6
[13] = human, in vivo, 115 mg/m2, Cycle 1 Day 1, Cohort B2, 115 mg/m2 per dose

Structure (SMILES): C[C@H]1Oc2cc(cnc2N)-c2c(nn(C)c2C#N)CN(C)C(=O)c2ccc(F)cc21 [Lorlatinib, (10R)-7-amino-12-fluoro-2,10,16-trimethyl-15-oxo-10,15,16,17-tetrahydro-2H-8,4-(metheno)pyrazolo[4,3-h][2,5,11]-benzoxadiazacyclotetradecine-3-carbonitrile]
- Swing [1]: 8.184
- Swing_Tau [1]: 8.184
- Tlast [1]: 24 h
- Vz_F [1]: 274.2
- HL_Lambda_z [2]: 12
- Tmin [2]: 0
- Lambda_z [1]: 0.05778
- Cavg [3]: 341.9
- Clast [3]: 147
- Clast_pred [3]: 144.8
- Cmin [3]: 147
- Ctau [3]: 147
- Tlag [1]: 0 h
- AUC_TAU_%Extrap [4]: 0%
- Tlast [4]: 24 h
- Tmax (Cycle 1 Day 15, Cohort A2, 100 mg per dose, individual patients, in h (unit assumed)): 2
- Tmax (Cycle 1 Day 15, Cohort A2, 100 mg per dose, individual patients, listed as lorlatinib, in h (unit assumed)): 2
- Tlag [4]: 0 h
- AUC_TAU_%Extrap [5]: 0%
- Tlast [5]: 24 h
- MRTINF_obs [6]: 20.95
- MRTINF_pred [6]: 20.85
- Tmax [6]: 2
- Tmin [6]: 0
- Clast_pred (Cycle 1 Day 15, Cohort A2, 150 mg per dose, individual patients, in ng/mL): 129.9
- AUCINF_pred (Cycle 1 Day 15, Cohort A2, 150 mg per dose, individual patients, in ng·h/mL (unit assumed)): 8874
- Tlag [5]: 0 h
- AUMC_TAU [7]: 28139.0694
- Accumulation_Index [7]: 1.002
- CLss_F [7]: 10.79
- Cmax_D [7]: 23.73
- Fluctuation% [7]: 464.7
- Fluctuation%_Tau [7]: 613.5
- Swing [7]: 3.101
- Swing_Tau [7]: 559.2
- Tlast [7]: 6 h
- Vz_F [7]: 40.19
- HL_Lambda_z [8]: 2.582
- Tmin [8]: 6
- Lambda_z [7]: 0.2684
- Cavg (Cycle 1 Day 15, patient N0773, Cohort B2, 115 mg/m2 per dose, Dose 75, in ng/mL): 289.6
- Tlag [7]: 0 h
- Tmax (human, in vivo, 60 mg/m2, Cohort A1, 60 mg/m2 per dose, C1D15, Geometric Mean, N 3, read-out: Tmax): 1.59 h
- Cmax (human, in vivo, 75 mg/m2, Cycle 1 Day 1, Cohort A1, 75 mg/m2 per dose, individual patients): 467 ng/mL
- AUC [9]: 8640 ng·h/mL
- Cmax [9]: 1210 ng/mL
- Tmax (human, in vivo, 115 mg/m2, Cohort A1, 115 mg/m2 per dose, C1D15, Geometric Mean, N 6, read-out: Tmax): 1.59 h
- AUC [10]: 8570 ng·h/mL
- Cmax [10]: 1280 ng/mL
- Tmax (human, in vivo, 115 mg/m2, Cohort A1, 115 mg/m2 per dose, C1D15, Median, N 6, read-out: Tmax): 1.5 h
- AUC [11]: 7950 ng·h/mL
- Cmax [11]: 1460 ng/mL
- Tmax (human, in vivo, 115 mg/m2, Cohort B2, 115 mg/m2 per dose, C1D15, Geometric Mean, N 6, read-out: Tmax): 1.12 h
- AUC [12]: 6940 ng·h/mL
- Cmax [12]: 1560 ng/mL
- Tmax (human, in vivo, 115 mg/m2, Cohort B2, 115 mg/m2 per dose, C1D15, Median, N 6, read-out: Tmax): 1 h
- MRT last (human, in vivo, 115 mg/m2, Cycle 1 Day 1, Cohort A1, 115 mg/m2 per dose): 11.1 h
- Tmax (human, in vivo, 115 mg/m2, Cycle 1 Day 1, Cohort A1, 115 mg/m2 per dose, read-out: Tmax): 1 h
- AUC(0-t) [13]: 17700 ng·h/mL
- MRT last [13]: 8.5 h

— article PMC10202811 (Nature Medicine, 2023)
